Measurements from PubChem BioAssay AID2060494 (Molecular Pharmacology Branch, DTP, NCI, 2025).

Tested on: 435261-313-R-J1-PDC complex spheroid viability
Assay: Anticancer human tumor 435261-313-R-J1-PDC patient-derived colon adenocarcinoma cell line growth inhibition [GQUAD]
Details: for IC50: curve of first compound; for viability, T/C: stronger effect = lower value; active means viability on the fitted dose curve at most 10% of control; inactive means the rest
Method in brief: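 Multi-cell-type spheroids of tumor cells with HUVEC and mesenchymal stem cells, treated with drug combinations. Concentrations descend in half-log steps from near clinical Cmax, or from 10 microM where Cmax is unknown; viability read-out.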

[1] = second compound 0.0316 µM, first compound 0.0316 µM
[2] = second compound 0.0316 µM, first compound 0.316 µM
[3] = second compound 0.1 µM, first compound 0.0316 µM
[4] = second compound 0.1 µM, first compound 0.316 µM
[5] = second compound 0.316 µM, first compound 0.0316 µM
[6] = second compound 0.316 µM, first compound 0.316 µM
[7] = second compound 1 µM, first compound 0.0316 µM
[8] = second compound 1 µM, first compound 0.316 µM
[9] = second compound 3.16 µM, first compound 0.0316 µM
[10] = second compound 3.16 µM, first compound 0.316 µM
[11] = second compound 10 µM, first compound 0.0316 µM
[12] = second compound 10 µM, first compound 0.316 µM
[13] = second compound 0.0316 µM, first compound 0.1 µM
[14] = second compound 0.0316 µM, first compound 1 µM
[15] = second compound 0.0316 µM, first compound 3.16 µM
[16] = second compound 0.0316 µM, first compound 10 µM
[17] = second compound 0.1 µM, first compound 0.1 µM
[18] = second compound 0.1 µM, first compound 1 µM
[19] = second compound 0.1 µM, first compound 3.16 µM
[20] = second compound 0.1 µM, first compound 10 µM
[21] = second compound 0.316 µM, first compound 0.1 µM
[22] = second compound 0.316 µM, first compound 1 µM
[23] = second compound 0.316 µM, first compound 3.16 µM
[24] = second compound 0.316 µM, first compound 10 µM
[25] = second compound 1 µM, first compound 0.1 µM
[26] = second compound 1 µM, first compound 1 µM
[27] = second compound 1 µM, first compound 3.16 µM
[28] = second compound 1 µM, first compound 10 µM
[29] = second compound 3.16 µM, first compound 0.1 µM
[30] = second compound 3.16 µM, first compound 1 µM
[31] = second compound 3.16 µM, first compound 3.16 µM
[32] = second compound 3.16 µM, first compound 10 µM
[33] = second compound 10 µM, first compound 0.1 µM
[34] = second compound 10 µM, first compound 1 µM
[35] = second compound 10 µM, first compound 3.16 µM
[36] = second compound 10 µM, first compound 10 µM
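Further: spheroids exposed to the agents for seven days before readout.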
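Wherever viability, T/C is given: percent of vehicle control viability with DMSO wells as 100%.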

Cc1[nH]c2ccccc2c1CCNCc1ccc(/C=C/C(=O)NO)cc1 + CN(C)c1ccc(Nc2c3ccc(NC(=O)CCN4CCCC4)cc3nc3cc(NC(=O)CCN4CCCC4)ccc23)cc1
25.5 nM: IC50 (second compound 3.16 µM)
inactive: viability, T/C (second compound 0.0316 µM, first compound 0.000999 µM) 84.5% | viability, T/C (second compound 0.0316 µM, first compound 0.00316 µM) 86% | viability, T/C (second compound 0.0316 µM, first compound 0.00999 µM) 95% | viability, T/C [1] 69.2% | viability, T/C (second compound 0.0316 µM, first compound 0.0999 µM) 45.9% | viability, T/C (second compound 0.1 µM, first compound 0.000999 µM) 134% | viability, T/C (second compound 0.1 µM, first compound 0.00316 µM) 96.6% | viability, T/C (second compound 0.1 µM, first compound 0.00999 µM) 79.4% | viability, T/C [3] 59.7% | viability, T/C (second compound 0.1 µM, first compound 0.0999 µM) 50.8% | viability, T/C [4] 11% | viability, T/C (second compound 0.316 µM, first compound 0.000999 µM) 104% | viability, T/C (second compound 0.316 µM, first compound 0.00316 µM) 99.5% | viability, T/C (second compound 0.316 µM, first compound 0.00999 µM) 91.4% | viability, T/C [5] 69.4% | viability, T/C (second compound 0.316 µM, first compound 0.0999 µM) 43.8% | viability, T/C (second compound 1 µM, first compound 0.000999 µM) 76.7% | viability, T/C (second compound 1 µM, first compound 0.00316 µM) 74.3% | viability, T/C (second compound 1 µM, first compound 0.00999 µM) 58.5% | viability, T/C [7] 62.1% | viability, T/C (second compound 1 µM, first compound 0.0999 µM) 45.5% | viability, T/C [8] 10.1% | viability, T/C (second compound 3.16 µM, first compound 0.000999 µM) 119% | viability, T/C (second compound 3.16 µM, first compound 0.00316 µM) 79.2% | viability, T/C (second compound 3.16 µM, first compound 0.00999 µM) 62.7% | viability, T/C [9] 56.2% | viability, T/C (second compound 3.16 µM, first compound 0.0999 µM) 28.5% | viability, T/C [10] 6.97% | viability, T/C (second compound 10 µM, first compound 0.000999 µM) 44.3% | viability, T/C (second compound 10 µM, first compound 0.00316 µM) 49.4% | viability, T/C (second compound 10 µM, first compound 0.00999 µM) 23.3% | viability, T/C [11] 18.3% | viability, T/C (second compound 10 µM, first compound 0.0999 µM) 22.6% | viability, T/C [12] 4.75%
55.8 nM: IC50 (second compound 0.1 µM)
80.3 nM: IC50 (second compound 0.0316 µM)
< 0.999 nM: IC50 (second compound 10 µM)
61.4 nM: IC50 (second compound 1 µM)
74.7 nM: IC50 (second compound 0.316 µM)
active: viability, T/C [2] 9.48% | viability, T/C [6] 9.1%

CC1COCCN1c1cc(-c2ccnn2C)c2ccnc(-c3ccn[nH]3)c2n1 (stereo unspecified) + Cc1cnc(CNC(=O)c2c(=O)c3ccc(N4CCCN(C)CC4)nc3n3c2sc2ccccc23)cn1
425 nM: IC50 (second compound 0.1 µM)
< 31.6 nM: IC50 (second compound 1 µM) | IC50 (second compound 3.16 µM) | IC50 (second compound 10 µM)
inactive: viability, T/C [1] 72.1% | viability, T/C [13] 54.9% | viability, T/C [2] 54.7% | viability, T/C [14] 35.4% | viability, T/C [15] 36.2% | viability, T/C [16] 23.9% | viability, T/C [3] 61.8% | viability, T/C [17] 59.4% | viability, T/C [4] 52.4% | viability, T/C [18] 42.2% | viability, T/C [19] 30.6% | viability, T/C [20] 21.3% | viability, T/C [5] 51.8% | viability, T/C [21] 57.6% | viability, T/C [6] 50.5% | viability, T/C [22] 37.9% | viability, T/C [23] 26.5% | viability, T/C [24] 15.1% | viability, T/C [7] 36.5% | viability, T/C [25] 41.9% | viability, T/C [8] 34.6% | viability, T/C [26] 26.3% | viability, T/C [27] 13.4% | viability, T/C [9] 22.4% | viability, T/C [29] 21.2% | viability, T/C [10] 11.5%
318 nM: IC50 (second compound 0.316 µM)
295 nM: IC50 (second compound 0.0316 µM)
active: viability, T/C [28] 9.95% | viability, T/C [30] 4.04% | viability, T/C [31] 3.7% | viability, T/C [32] 2.53% | viability, T/C [11] 0.11% | viability, T/C [33] 0.14% | viability, T/C [12] 0.18% | viability, T/C [34] 0.15% | viability, T/C [35] 0.16% | viability, T/C [36] 0.15%

CC1COCCN1c1cc(C2(S(C)(=N)=O)CC2)nc(-c2ccnc3[nH]ccc23)n1 (stereo unspecified) + Cc1[nH]c2ccc(F)cc2c1-c1nc2c3cccnc3c3ncccc3c2[nH]1
inactive: viability, T/C [1] 111% | viability, T/C [13] 85.9% | viability, T/C [2] 107% | viability, T/C [14] 60.5% | viability, T/C [15] 66% | viability, T/C [16] 52.2% | viability, T/C [3] 93% | viability, T/C [17] 106% | viability, T/C [4] 90.5% | viability, T/C [18] 83.7% | viability, T/C [19] 80.2% | viability, T/C [20] 55.4% | viability, T/C [5] 94.2% | viability, T/C [21] 127% | viability, T/C [6] 74.8% | viability, T/C [22] 106% | viability, T/C [23] 50.1% | viability, T/C [24] 47.9% | viability, T/C [7] 54.4% | viability, T/C [25] 65.6% | viability, T/C [8] 68% | viability, T/C [26] 52.6% | viability, T/C [27] 36.4% | viability, T/C [28] 30% | viability, T/C [9] 29.6% | viability, T/C [29] 37.1% | viability, T/C [10] 30.3% | viability, T/C [30] 28.9% | viability, T/C [31] 21.6% | viability, T/C [32] 12.2% | viability, T/C [11] 30.7% | viability, T/C [33] 22.6% | viability, T/C [12] 28.1% | viability, T/C [34] 18.4% | viability, T/C [35] 14.9% | viability, T/C [36] 8.85%
< 31.6 nM: IC50 (second compound 3.16 µM) | IC50 (second compound 10 µM)
> 10000 nM: IC50 (second compound 0.0316 µM) | IC50 (second compound 0.1 µM)
3270 nM: IC50 (second compound 0.316 µM)
1280 nM: IC50 (second compound 1 µM)
